15 compounds from PubChem BioAssay (NCI) can be followed below.

Test systems include HOP-62 NSCLC; RXF 393 renal; HOP-92 NSCLC; 786-0 renal; OVCAR-3 ovarian; SF-295 CNS; IGROV1 ovarian; CAKI-1 renal; MDA-MB-231 breast; DU-145 prostate.
Holding throughout (assay): DTP human tumour cell line panel, 48 h

Each structure is given as a SMILES string.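 Interpolation was linear, between the two tested concentrations surrounding the appropriate level; five concentrations were tested over 48 hours in 96-well plates. Abbreviation: GI50, concentration required for 50% inhibition of growth. TGI marks complete inhibition of growth.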 A value given as a limit tells only on which side of the number the result lay.

What is called TGI is the concentration giving total growth inhibition. Read a low TGI as greater sensitivity of the cells. Regarding `O=C(CC/C(CC(=O)c1ccc(Br)cc1)=N\O)Nc1ccc(Cl)c(Cl)c1`, the TGI in the assay on HOP-62 NSCLC was greater than 100 µM; in the assay with RXF 393 renal, 90.7 µM; in the assay on HOP-92 NSCLC it was greater than 100 µM; with 786-0 renal it was greater than 100 µM; with OVCAR-3 ovarian it was greater than 100 µM; in the assay on SF-295 CNS it was greater than 100 µM. For the same compound, in the assay on IGROV1 ovarian, the concentration for total growth inhibition (TGI) was greater than 100 µM.

For orientation: GI50 means the concentration that inhibits growth by half. As to `CC(=O)[O-].O=C([CH-]C(=O)c1ccccc1)c1ccccc1.O=C([CH-]C(=O)c1ccccc1)c1ccccc1.[Sm+3]`, the GI50 with CAKI-1 renal is 3.57 µM; in the assay with HOP-62 NSCLC it was 1.96 µM; with HOP-92 NSCLC, 4.96 µM; with 786-0 renal, 3.2 µM; with OVCAR-3 ovarian, 2.62 µM; in the assay on SF-295 CNS, 2.66 µM. Moreover, the GI50 in the assay on IGROV1 ovarian was 5.92 µM. Further, the concentration for total growth inhibition (TGI) was 15.9 µM in the assay on CAKI-1 renal; 9.04 µM with HOP-62 NSCLC; 19.6 µM with HOP-92 NSCLC; 16.3 µM with 786-0 renal; 13.3 µM in the assay with OVCAR-3 ovarian; 17.2 µM in the assay with SF-295 CNS. Besides, the concentration for total growth inhibition (TGI) with IGROV1 ovarian amounted to 45.1 µM.

As for `Cn1c(=O)c2/c(n(C)c1=O)=N\C=c1\c(=O)n(C)c(=O)n(C)\c1=N\C=2`, the TGI with CAKI-1 renal, in the assay with HOP-62 NSCLC, in the assay with RXF 393 renal, in the assay with HOP-92 NSCLC, in the assay with 786-0 renal and in the assay with OVCAR-3 ovarian was greater than 100 µM in each case. In addition, the concentration for total growth inhibition (TGI) in the assay with SF-295 CNS and with IGROV1 ovarian was greater than 100 µM each time.

Take `O=C1CSc2cc([N+](=O)[O-])ccc2N1`: the TGI with CAKI-1 renal, in the assay on HOP-62 NSCLC, in the assay with RXF 393 renal, in the assay on 786-0 renal, in the assay on OVCAR-3 ovarian and with SF-295 CNS was greater than 100 µM throughout. This compound also had a total growth inhibition concentration (TGI) in the assay on IGROV1 ovarian greater than 100 µM.

As for `Cn1cccc1/C=C/c1cc(Br)c(/C=C/c2cccn2C)cc1Br`, the TGI was 39.7 µM in the assay with CAKI-1 renal; 25.1 µM in the assay with RXF 393 renal; 39.5 µM in the assay with HOP-92 NSCLC; 20.2 µM in the assay with 786-0 renal; 33.6 µM with OVCAR-3 ovarian; 52.8 µM in the assay on SF-295 CNS. This compound also showed a concentration for total growth inhibition (TGI) with IGROV1 ovarian of 53.2 µM.

Take `O=C(NC(=O)c1ccccc1[N+](=O)[O-])Nc1ccc(Oc2ncc(Cl)cn2)c(C(F)(F)F)c1`: the TGI is 66.4 µM with HOP-62 NSCLC; 3.24 µM with HOP-92 NSCLC; 24.6 µM in the assay on 786-0 renal; 0.838 µM in the assay on OVCAR-3 ovarian; greater than 4.64 µM with SF-295 CNS; 2.6 µM with MDA-MB-231 breast. The concentration for total growth inhibition (TGI) in the assay with IGROV1 ovarian and with DU-145 prostate was greater than 100 µM each time.

Take `O=C(CCC(=O)C1CCC/C1=N/O)Nc1ccc(Cl)cc1` (centres undefined): the concentration for total growth inhibition (TGI) in the assay with CAKI-1 renal, in the assay on HOP-62 NSCLC, with HOP-92 NSCLC, in the assay with 786-0 renal, with OVCAR-3 ovarian and in the assay with SF-295 CNS was greater than 100 µM throughout. In addition, the TGI in the assay on IGROV1 ovarian is greater than 100 µM.

Regarding `Brc1cc2c(cc1Br)CN(c1ccccc1)C2`, the TGI with HOP-62 NSCLC, in the assay on RXF 393 renal, in the assay with HOP-92 NSCLC, with 786-0 renal, in the assay with OVCAR-3 ovarian and in the assay with SF-295 CNS was greater than 100 µM each time. In addition, the TGI with IGROV1 ovarian is greater than 100 µM.

As to `CN(C)C(=O)Oc1c(-c2ccccc2)c(=O)n2c3ccccc3n3c(=O)n(C)c(=O)c1c23`, the concentration for total growth inhibition (TGI) with CAKI-1 renal, in the assay on HOP-62 NSCLC, in the assay on RXF 393 renal, with HOP-92 NSCLC, with 786-0 renal and in the assay on OVCAR-3 ovarian was greater than 100 µM throughout. The TGI in the assay on SF-295 CNS and in the assay on IGROV1 ovarian was greater than 100 µM in each case.

Consider `O=C1/C(=C/c2ccc(Br)cc2)CCC/C1=C\c1ccc(Br)cc1`, for which the TGI with CAKI-1 renal was greater than 100 µM; with HOP-62 NSCLC, 53.3 µM; in the assay on RXF 393 renal, 18.9 µM; in the assay with 786-0 renal it was 33.8 µM; in the assay on OVCAR-3 ovarian it was 15.9 µM; with IGROV1 ovarian it was 38.7 µM.

`CCCCCCCCCCC(C)CCCCCCC(=O)O` (centres undefined): the TGI in the assay with CAKI-1 renal, in the assay with HOP-62 NSCLC, in the assay on RXF 393 renal, with HOP-92 NSCLC, in the assay with 786-0 renal and in the assay with OVCAR-3 ovarian was greater than 100 µM in each case. For the same compound, the concentration for total growth inhibition (TGI) in the assay on SF-295 CNS and in the assay on IGROV1 ovarian was greater than 100 µM each time.

Consider `CC(=O)[CH-]C(=O)c1ccccc1.CC(=O)[CH-]C(=O)c1ccccc1.CC[O-].O=C1c2ccccc2C(=O)c2c1ccc(O)c2[O-].[Ti+4]`, for which the concentration for total growth inhibition (TGI) in the assay on CAKI-1 renal, in the assay on HOP-62 NSCLC, in the assay on HOP-92 NSCLC, with 786-0 renal, with OVCAR-3 ovarian and in the assay on SF-295 CNS was greater than 100 µM throughout. In the assay with IGROV1 ovarian, this compound returned a total growth inhibition concentration (TGI) greater than 100 µM.

Take `O=S1Nc2c(Cl)cc(Cl)c(Cl)c2S1` (centres undefined): the TGI in the assay on CAKI-1 renal, in the assay on HOP-62 NSCLC, in the assay on RXF 393 renal, in the assay with HOP-92 NSCLC, in the assay on 786-0 renal and in the assay with OVCAR-3 ovarian was greater than 100 µM in each case. Also, the TGI in the assay with SF-295 CNS and in the assay with IGROV1 ovarian was greater than 100 µM throughout.

Consider `CC(=O)[CH-]C(C)=O.CC(=O)[CH-]C(C)=O.CC[O-].CC[O-].[Ti+4]`, for which the GI50 with CAKI-1 renal, in the assay with HOP-62 NSCLC, with RXF 393 renal, with HOP-92 NSCLC, in the assay with 786-0 renal and in the assay with OVCAR-3 ovarian was greater than 100 µM in each case. The GI50 with SF-295 CNS and with IGROV1 ovarian was greater than 100 µM throughout. Further, the total growth inhibition concentration (TGI) with CAKI-1 renal, with HOP-62 NSCLC, in the assay with RXF 393 renal, with HOP-92 NSCLC, in the assay with 786-0 renal and with OVCAR-3 ovarian was greater than 100 µM each time. Moreover, the TGI with SF-295 CNS and in the assay on IGROV1 ovarian was greater than 100 µM each time.

For `CCSc1ccc(C2C(Br)C(=O)N2c2cc(OC)c(OC)c(OC)c2)cc1` (centres undefined), the concentration for 50% growth inhibition (GI50) with HOP-62 NSCLC is 0.336 µM; with HOP-92 NSCLC, 0.443 µM; with 786-0 renal, 0.34 µM; in the assay with OVCAR-3 ovarian, 0.109 µM; in the assay with SF-295 CNS, 0.087 µM; in the assay on MDA-MB-231 breast, 0.488 µM. Also, the values for the GI50 with IGROV1 ovarian and with DU-145 prostate were 0.63 µM and 0.349 µM, respectively. Further, the total growth inhibition concentration (TGI) is greater than 100 µM in the assay on HOP-62 NSCLC; 14.1 µM in the assay on HOP-92 NSCLC; 13.1 µM in the assay with 786-0 renal; 0.73 µM in the assay on OVCAR-3 ovarian; greater than 100 µM in the assay on SF-295 CNS; 95.3 µM in the assay on MDA-MB-231 breast. Also, the total growth inhibition concentration (TGI) in the assay on IGROV1 ovarian was 20.9 µM; with DU-145 prostate, greater than 100 µM.
